Assays:
Type in all cases: in vivo, C57BL/6NTac mice
[1] = tested on: animal model of stress depression induced by chronic restrained stress (CRS); assay: Tail suspension test (TST) in CRS-induced stress depression model; settings: CRS+BA group, oral daily 1 hour before restraint, day 14, last 4 minutes of 6-minute test; dose not stated
Protocol: In order to confirm the antidepressant efficacy of bornyl acetate on the animal model of stress depression, an animal model of depression induced by chronic restrained stress (CRS) was prepared. Specifically, the animal model, 8-week-old male C57BL/6NTac mice after birth (Narabiotechnology, Korea; weight 22-24 g) had been stabilized for 1 week. A 50 ml conical tube (SPL Life sciences, Pocheon, Korea) was punched to make a hole, thereby making a restraint frame. The mice were put in the frame and restrained for 2 hours every day for 14 days. After restraint, the mice were allowed to freely ingest water and food in the home cage. On the 14th day after chronic restrained stress was induced, the tail tip of the mouse was fixed and hanged upside down on a horizontal bar (1 cm in diameter) installed at a height of about 50 cm from the floor, and then the time of immobility was measured. Measurements were made during the last 4 minutes of the 6-minute test period. Bornyl acetate (25, 50 and 100 mg/kg) of the present invention was dissolved in 0.1 M PBS, and the mixture was orally administered 1 hour before inducing restrained stress every day. Bornyl acetate was administered in a dose per individual of 100 μl.

[2] = tested on: CD11b protein; assay: Western blot of CD11b protein in brain (hippocampus and amygdala) of CRS model; settings: CRS+BA group
Protocol: In order to confirm the antidepressant efficacy of bornyl acetate on the animal model of stress depression, an animal model of depression induced by chronic restrained stress (CRS) was prepared. Specifically, the animal model, 8-week-old male C57BL/6NTac mice after birth (Narabiotechnology, Korea; weight 22-24 g) had been stabilized for 1 week. A 50 ml conical tube (SPL Life sciences, Pocheon, Korea) was punched to make a hole, thereby making a restraint frame. The mice were put in the frame and restrained for 2 hours every day for 14 days. After restraint, the mice were allowed to freely ingest water and food in the home cage. The hippocampus and amygdala of the brain were excised. They were added to 200 μl of a protein lysis buffer (10 mM Tris, 0.5 mM EDTA, 0.25 M sucrose), and proteins were isolated using a grinder. The isolated protein was quantified by the Bradford method (Bio-rad, USA) using bovine serum albumin (BSA, Sigma, USA), and then 25 μg of the protein was separated by 10% sodium dodecyl sulfate-polyacrylamide gel electrophoresis (SDS-PAGE) and transferred to polyvinylidene difluoride (PVDF) membrane (Gendepot, UK). PVDF membranes were blocked in 5% skimmed milk (BD, USA) for 1 hour. […] Identification and quantitative analysis of proteins were analyzed using an imaging device ChemiDoc XRS+ (Bio-Rad). […]

[3] = tested on: iNOS mRNA; assay: RT-PCR of iNOS mRNA in brain (hippocampus and amygdala) of CRS model; settings: CRS+BA group, 100 mg/kg oral
Protocol: In order to confirm the antidepressant efficacy of bornyl acetate on the animal model of stress depression, an animal model of depression induced by chronic restrained stress (CRS) was prepared. Specifically, the animal model, 8-week-old male C57BL/6NTac mice after birth (Narabiotechnology, Korea; weight 22-24 g) had been stabilized for 1 week. A 50 ml conical tube (SPL Life sciences, Pocheon, Korea) was punched to make a hole, thereby making a restraint frame. The mice were put in the frame and restrained for 2 hours every day for 14 days. After restraint, the mice were allowed to freely ingest water and food in the home cage.
In order to confirm the inhibitory effect of bornyl acetate on the expression of inflammatory mediators in an animal model of depression induced by chronic restrained stress, mRNA expression was confirmed using reverse transcription-polymerase chain reaction (RT-PCR). Bornyl acetate (100 mg/kg) was orally administered 1 hour before inducing the restrained stress every day. […]
Western blot and RT-PCR analysis were performed in the brain (hippocampus and amygdala) of an animal model of chronic restrained stress (CRS)-induced stress depression to exam and quantify the activation level of inflammatory mediators, thereby verifying the modulating effect of bornyl acetate on the inflammatory response in the brain. […]

Question: How did the “time of immobility, tail suspension test” value [1] turn out when `CC(=O)OC1CC2CCC1(C)C2(C)C` (centres unmarked) [BA, bornyl acetate] was run?
Answer: 91.4 s

Question: What about the “expression of CD11b protein (CRS-induced increase)” value ([2]; amygdala) of the same compound?
Answer: significantly inhibited

Question: What about the “expression of CD11b protein (CRS-induced increase)” value ([2]; hippocampus) of the same compound?
Answer: significantly inhibited

Question: What about the “mRNA expression of iNOS (CRS-induced increase)” value ([3]; amygdala) of the same compound?
Answer: significantly inhibited

Question: What about the “mRNA expression of iNOS (CRS-induced increase)” value ([3]; hippocampus) of the same compound?
Answer: significantly inhibited

Reference: patent publication US12285399B2, “Composition comprising bornyl acetate or pharmaceutically acceptable salt thereof as active ingredient for prevention or treatment of stress-related disorder” (UNIVERSITY-INDUSTRY COOPERATION GROUP OF KYUNG HEE …, priority 2019, dated 2025)
